Laboratory results reported in article PMC7384330 (Neuropharmacology, 2018).
“Also recorded” adds a separate entry of the source. Read-outs that look alike come from different tables or passages of the source. Values belong to the molecule of their own block, whether it stands above or below them.

How the values were obtained:
[1] = target: T1, human oxytocin receptor (OXTR) (Homo sapiens, UniProt P30559); assay: Fluorescence-based intracellular calcium mobilization assay; type: cell-based
T1 sequence (P30559 1-389): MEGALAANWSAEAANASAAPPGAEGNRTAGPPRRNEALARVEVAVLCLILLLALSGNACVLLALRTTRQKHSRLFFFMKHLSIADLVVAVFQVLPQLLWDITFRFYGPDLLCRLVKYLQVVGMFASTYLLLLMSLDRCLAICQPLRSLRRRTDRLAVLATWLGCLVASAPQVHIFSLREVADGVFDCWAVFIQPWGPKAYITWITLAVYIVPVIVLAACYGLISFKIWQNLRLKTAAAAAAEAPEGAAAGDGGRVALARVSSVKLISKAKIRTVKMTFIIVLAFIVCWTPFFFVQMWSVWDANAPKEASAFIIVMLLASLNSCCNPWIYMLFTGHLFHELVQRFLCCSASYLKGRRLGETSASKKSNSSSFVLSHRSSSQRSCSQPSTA

[2] = target: T2, OXTR (β-arrestin recruitment) (Homo sapiens, UniProt P30559); type: cell-based
T2 sequence (P30559 1-389): T1 sequence (P30559 1-389)

[3] = target: T2, OXTR (β-arrestin recruitment); assay: PathHunter eXpress β-Arrestin GPCR Kit, enzyme fragment complementation assay; type: cell-based
human OXTR = target: T3, human OXTR (Homo sapiens, UniProt P30559); assay: IP3 accumulation assay; type: cell-based
T3 sequence (P30559 1-389): T1 sequence (P30559 1-389)

[4] = target: T4, human Avpr1b vasopressin receptor (Homo sapiens, UniProt P47901); assay: Calcium mobilization assay, CHO-V1b; type: cell-based
T4 sequence (P47901 1-424): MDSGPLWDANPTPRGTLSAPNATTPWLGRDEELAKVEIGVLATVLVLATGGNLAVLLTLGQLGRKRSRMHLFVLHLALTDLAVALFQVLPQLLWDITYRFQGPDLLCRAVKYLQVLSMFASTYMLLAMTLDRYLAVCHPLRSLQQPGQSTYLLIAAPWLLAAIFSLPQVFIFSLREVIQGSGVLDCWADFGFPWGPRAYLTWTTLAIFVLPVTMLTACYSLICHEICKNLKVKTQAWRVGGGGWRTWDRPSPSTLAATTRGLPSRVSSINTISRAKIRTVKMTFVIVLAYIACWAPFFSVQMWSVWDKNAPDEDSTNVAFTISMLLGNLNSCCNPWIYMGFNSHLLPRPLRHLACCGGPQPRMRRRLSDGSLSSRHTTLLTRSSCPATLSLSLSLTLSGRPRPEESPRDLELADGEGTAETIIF

[5] = system: human Avpr1a vasopressin receptor; assay: Calcium mobilization assay, CHO-V1a; type: cell-based; conditions: Supplemental Fig. 1
[6] = system: human Avpr2 vasopressin receptor; assay: Calcium mobilization assay, CHO-V2; type: cell-based; conditions: Supplemental Fig. 1
wild-type CHO cells = assay: Calcium response in wild-type CHO cells; type: cell-based; conditions: Supplemental Fig. 2
[7] = target: T5, muscarinic acetylcholine receptor M2 (Homo sapiens, UniProt P08172); assay: NIMH PDSP GPCR receptor binding screen, M2
T5 sequence (P08172 1-466): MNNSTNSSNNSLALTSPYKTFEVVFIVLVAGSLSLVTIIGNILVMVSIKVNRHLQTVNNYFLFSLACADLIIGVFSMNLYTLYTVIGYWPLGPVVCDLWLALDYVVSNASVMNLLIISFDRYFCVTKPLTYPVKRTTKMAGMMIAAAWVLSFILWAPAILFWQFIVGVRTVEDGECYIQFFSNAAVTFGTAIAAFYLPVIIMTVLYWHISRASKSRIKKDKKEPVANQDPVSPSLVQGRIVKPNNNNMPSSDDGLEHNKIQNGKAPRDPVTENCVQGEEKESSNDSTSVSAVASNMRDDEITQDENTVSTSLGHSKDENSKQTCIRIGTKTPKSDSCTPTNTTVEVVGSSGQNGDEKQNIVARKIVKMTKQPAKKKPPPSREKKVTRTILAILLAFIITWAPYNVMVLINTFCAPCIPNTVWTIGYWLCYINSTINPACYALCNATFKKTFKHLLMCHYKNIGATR

[8] = target: muscarinic acetylcholine receptor M3 (Homo sapiens, UniProt P20309); assay: NIMH PDSP GPCR receptor binding screen, M3
[9] = target: T6, muscarinic acetylcholine receptor M4 (Homo sapiens, UniProt P08173); assay: NIMH PDSP GPCR receptor binding screen, M4
T6 sequence (P08173 1-479): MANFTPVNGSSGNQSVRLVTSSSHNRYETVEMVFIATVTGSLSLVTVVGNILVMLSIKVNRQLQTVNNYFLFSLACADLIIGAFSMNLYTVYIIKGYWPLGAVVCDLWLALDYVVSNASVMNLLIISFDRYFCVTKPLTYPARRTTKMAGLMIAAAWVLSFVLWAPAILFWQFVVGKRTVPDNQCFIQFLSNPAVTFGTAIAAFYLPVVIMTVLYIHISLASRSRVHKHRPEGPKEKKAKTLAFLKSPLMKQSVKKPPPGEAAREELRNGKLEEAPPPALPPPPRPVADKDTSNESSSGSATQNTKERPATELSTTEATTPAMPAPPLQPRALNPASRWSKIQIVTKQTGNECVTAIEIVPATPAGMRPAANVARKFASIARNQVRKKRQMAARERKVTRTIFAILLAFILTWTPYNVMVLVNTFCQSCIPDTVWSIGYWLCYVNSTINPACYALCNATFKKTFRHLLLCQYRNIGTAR

other human receptors = assay: NIMH PDSP GPCR receptor binding screen, other receptors; conditions: complete set of GPCRs available through NIMH PDSP
BALB/cByJ mice [10] = assay: Three-chamber social choice test after subchronic regimen; type: in vivo, mouse
BALB/cByJ mice [11] = assay: Marble-burying assay, BALB/cByJ; type: in vivo, mouse; conditions: for digging responses in marble-burying assay, oxytocin metabolites: acute IP, Supplemental Fig. 3B, C
OXTR [12] = conditions: ref Pitt et al., 2004, cited from earlier work
OXTR [13] = conditions: ref Pitt et al., 2004, cited from earlier work; remark: listed apart in the source
[14] = target: Avpr1a vasopressin receptor; conditions: ref Frantz et al., 2010, cited from earlier work
[15] = target: T7, muscarinic acetylcholine receptor M5 (Homo sapiens, UniProt P08912); assay: NIMH PDSP GPCR receptor binding screen, M5
T7 sequence (P08912 1-532): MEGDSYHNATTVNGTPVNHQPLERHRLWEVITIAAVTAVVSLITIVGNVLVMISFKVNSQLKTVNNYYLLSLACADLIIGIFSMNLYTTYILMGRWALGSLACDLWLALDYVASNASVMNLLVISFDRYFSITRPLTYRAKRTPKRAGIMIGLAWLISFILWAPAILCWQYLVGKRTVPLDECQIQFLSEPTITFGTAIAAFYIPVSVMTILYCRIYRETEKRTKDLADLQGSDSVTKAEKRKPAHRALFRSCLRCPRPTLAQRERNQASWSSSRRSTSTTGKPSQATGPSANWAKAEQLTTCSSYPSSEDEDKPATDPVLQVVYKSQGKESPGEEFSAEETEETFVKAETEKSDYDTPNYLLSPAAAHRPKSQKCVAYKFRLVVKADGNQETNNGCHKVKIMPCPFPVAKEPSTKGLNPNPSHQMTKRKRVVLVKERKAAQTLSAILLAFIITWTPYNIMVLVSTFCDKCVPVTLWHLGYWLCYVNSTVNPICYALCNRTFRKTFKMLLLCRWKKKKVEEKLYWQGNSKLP

rodents = conditions: ref Ring and colleagues 2006, 2010; cited from earlier work
rats [16] = conditions: ref de Wied et al., 1987; cited from earlier work
BALB/cByJ mice [17] = assay: Open field test for activity and exploration; type: in vivo, mouse
rats [18] = conditions: dependent on dose; ref Popik et al., 1996; cited from earlier work

Chain of muscarinic acetylcholine receptor M3 (P20309 whole entry): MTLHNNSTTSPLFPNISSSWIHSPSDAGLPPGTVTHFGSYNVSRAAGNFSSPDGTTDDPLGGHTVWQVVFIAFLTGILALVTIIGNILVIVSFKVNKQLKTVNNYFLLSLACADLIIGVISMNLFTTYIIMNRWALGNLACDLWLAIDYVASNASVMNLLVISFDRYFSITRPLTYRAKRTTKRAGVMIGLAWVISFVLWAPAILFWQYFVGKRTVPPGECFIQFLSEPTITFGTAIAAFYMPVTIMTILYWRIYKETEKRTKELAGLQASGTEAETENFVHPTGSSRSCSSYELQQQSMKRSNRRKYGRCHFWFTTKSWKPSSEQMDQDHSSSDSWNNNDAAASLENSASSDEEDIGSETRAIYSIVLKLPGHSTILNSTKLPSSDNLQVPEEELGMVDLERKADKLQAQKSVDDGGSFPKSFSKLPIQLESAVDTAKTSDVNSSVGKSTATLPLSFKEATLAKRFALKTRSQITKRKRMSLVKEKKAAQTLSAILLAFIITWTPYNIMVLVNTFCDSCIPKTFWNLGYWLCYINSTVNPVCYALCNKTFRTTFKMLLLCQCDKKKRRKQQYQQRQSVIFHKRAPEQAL

- Efficacy (% OXT Response), FLIPR TETRA Ca2+ Release ([1]; Table 1, oxytocin response as 100%): 102%
- EC50 [2]: 310 ± 260 nM
- Efficacy (% OXT Response), DiscoveRx β-Arrestin ([2]; oxytocin response as 100%): 51 ± 6%
- EC50 [3]: 480 nM
- Efficacy (% OXT Response), DiscoveRx Express β-Arrestin ([3]; oxytocin response as 100%, run as single points only): 48%
- EC50 (human OXTR): 890 ± 90 nM
- Emax (human OXTR; read-out: maximum efficacy, IP3 accumulation): 67 ± 4%
- EC50 [4]: 4300 ± 70 nM
- efficacy at human Avpr1b ([4]; compared to vasopressin): 74 ± 2%
- activation of human Avpr1a ([5]; CHO-V1a): did not activate the human Avpr1a
- Ki [7]: > 1000 nM
- Ki [8]: > 1000 nM
- Ki [9]: > 1000 nM
- Ki [15]: > 1000 nM
Molecule: Cc1cc(C(=O)N2Cc3cnn(C)c3Nc3ccccc32)ccc1CNC(=O)N1CCC[C@H]1C(=S)N1CCCN(C)CC1 [TC-OT-39, (2S)-N-[[4-[(4,10-Dihydro-1-methylpyrazolo[3,4-b][1,5]benzodiazepin-5(1H)-yl)carbonyl]-2-methylphenyl]methyl]-2-[(hexahydro-4-methyl-1H-1,4-diazepin-1-yl)thioxomethyl]-1-pyrrolidinecarboxamide]
- agonist character at human OXTR ([1]; calcium mobilization / Gq signaling): moderately potent full agonist at the human OXTR; also recorded: efficacy comparable to that of oxytocin for Gq signaling
- agonist character for β-arrestin recruitment ([3]; enzyme fragment complementation assay, CHO cells): reduced efficacy for β-arrestin recruitment; also recorded: only a partial agonist of β-arrestin recruitment
- inverse agonism at Avpr1a [5]: appears to be an inverse agonist at Avpr1a
- activation of human Avpr2 [6]: did not activate the human Avpr1a or Avpr2 receptors
- response of wild-type CHO cells (wild-type CHO cells): did not induce any response
- binding to other human receptors (other human receptors): no significant binding to other human receptors
- emergence of sociability at 14 days, TC-OT-39 (BALB/cByJ mice [10]; 30 and 50 mg/kg IP, subchronic, 14 days after final injection): no evidence for the emergence of increased sociability at the 14-day time point
- marble burying, BALB/cByJ, 50 mg/kg (BALB/cByJ mice [11]; TC-OT-39 50 mg/kg IP, 50 min before test, F(1,14)=6.18, p=0.0261): comparable decreases in marble burying
- sedative-like effects, 75 mg/kg (BALB/cByJ mice [11]; TC-OT-39 75 mg/kg IP, acute, not further tested): overt sedative-like effects
- EC50 (OXTR [12]; read-out: EC50, OXTR gene reporter assay): 33 nM
- agonist character, OXTR gene reporter assay (OXTR [12]): full agonist
- EC50 (OXTR [13]; read-out: EC50, OXTR IP3 accumulation): 667 nM
- agonist character, OXTR IP3 accumulation (OXTR [13]): partial agonist
- Ki ([14]; read-out: KI at Avpr1a, antagonist): 330 nM
- character at Avpr1a [14]: antagonist of the Avpr1a vasopressin receptor

Molecule: Cc1cc(C(=O)N2Cc3cnn(C)c3Nc3ccccc32)ccc1CNC(=O)N1CCN(Cc2cc(O)cc(O)c2)CC1 [WAY-267464]
- anxiolytic-like effects, rodent assays (rodents): comparable anxiolytic-like effects in rodent assays

Molecule: Asn-Cyt-Pro-Leu-Gly-NH2 [OT(5-9)]
- sociability, OT(5-9) 1 mg/kg (BALB/cByJ mice [10]; 1 mg/kg IP, subchronic, Supplemental Fig. 4D, E): failed to reverse social deficits
- sociability, OT(5-9) 2.0 mg/kg (BALB/cByJ mice [10]; 2.0 mg/kg IP, subchronic, Supplemental Fig. 5): failed to reveal prosocial efficacy
- digging responses in marble-burying assay, oxytocin metabolites (BALB/cByJ mice [11]; 50 min before test): neither OT(4-9) nor OT(5-9) altered digging responses in the marble-burying assay
- potency on avoidance learning relative to oxytocin (rats [16]): greater potency than oxytocin itself on specific aspects of avoidance learning in rats

Molecule: pGlu-Asn-Cyt-Pro-Leu-Gly-NH2 [OT(4-9)]
- entries, OT(4-9) 1.0 mg/kg (BALB/cByJ mice [10]; 1.0 mg/kg IP, subchronic, n=8): without changing entries during the test
- proximity to stranger mouse, OT(4-9) 1.0 mg/kg (BALB/cByJ mice [10]; 1.0 mg/kg IP, subchronic, n=8, main effect of side F(1,14)=6.84, p=0.0204): significant social preference for proximity to the stranger mouse
- time in side with stranger mouse, OT(4-9) 2.0 mg/kg, 24 hr and 12 days (BALB/cByJ mice [10]; 2.0 mg/kg IP, subchronic, 24-hr test F(1,21)=7.3, p=0.0133, 12-day test F(1,21)=4.85, p=0.039, n=8): significant preference for spending more time in the side with the stranger mouse at both time points
- proximity to stranger mouse, OT(4-9) 2.0 mg/kg, 12 days (BALB/cByJ mice [10]; 2.0 mg/kg IP, subchronic, 12 days, F(1,21)=7.02, p=0.015, n=8): significant preference for proximity to the stranger mouse 12 days following the final injection
- prosocial efficacy compared with oxytocin (BALB/cByJ mice [10]; OT(4-9) 2.0 mg/kg vs oxytocin 1.0 mg/kg, subchronic): prosocial efficacy similar to oxytocin
- dose dependence of sociability, OT(4-9) (BALB/cByJ mice [10]; subchronic IP): only the higher doses (1.0 and 2.0 mg/kg) leading to increased sociability
- entries during 3-chamber test (discussion) (BALB/cByJ mice [10]; subchronic IP): neither oxytocin nor OT(4-9) led to alterations in entries during the 3-chamber test
- digging responses in marble-burying assay, oxytocin metabolites (BALB/cByJ mice [11]; 50 min before test): neither OT(4-9) nor OT(5-9) altered digging responses in the marble-burying assay
- activity or exploration in open field, OT(4-9) (BALB/cByJ mice [17]; OT(4-9) 2.0 mg/kg IP immediately before 2-hr test, versus vehicle, n=9): no significant effects on activity or exploration in the open field
- anxiolytic effects, acute OT(4-9) (BALB/cByJ mice [17]; acute, marble-burying assay and open field tests): lacked anxiolytic effects in the marble-burying assay and open field tests
- potency on avoidance learning relative to oxytocin (rats [16]): greater potency than oxytocin itself on specific aspects of avoidance learning in rats
- social recognition (rats [18]): oxytocin-like effects on social recognition in rats, dependent on dose
